Assay results: patent publication US11690818B2, “Drug containing liver targeting specific ligand and thyroid hormone receptor agonist” (priority 2018, dated 2023)

How the values were obtained:
db/db mice [1] = experiment: Example 4: serum TC, LDL and TG in db/db mice; format: in vivo; settings: subcutaneous injection daily for 21 days, Kylo-0100 13.5, Kylo-0101 48.4, Kylo-0102 43.3, Kylo-0103 43.3 μg/kg, vs saline control group
Method: (§1) The mice needed to adapt to the environment before the experiment, and healthy mice were selected as test animals, and reared in IVC cages at a density of 5 animals/cage with the litter being changed twice a week.
The body weight was weighed twice a week, and the administration was carried out continuously for 21 days. After the last administration, the mice were fasted overnight for 15-16 hours, sacrificed by CO2 anesthesia. The blood was collected by cardiac puncture, left to stand at room temperature for 2 hours, and centrifuged on a low temperature centrifuge at 3000 RPM for 10 minutes to collect serum, which was then stored in a −80° C. refrigerator for later use. The contents of total cholesterol (TC), low-density lipoprotein (LDL) and triglyceride (TG) in the serum were measured on a blood biochemical analyzer.

db/db mice [2] = experiment: Example 4: bone mineral density and body weight of db/db mice; format: in vivo; settings: Kylo-0100 13.5, Kylo-0101 48.4 μg/kg sc daily
Method: as §1
The body weight was weighed twice a week, and the administration was carried out continuously for 21 days. […] The blood was collected by cardiac puncture, left to stand at room temperature for 2 hours, and centrifuged on a low temperature centrifuge at 3000 RPM for 10 minutes to collect serum, which was then stored in a −80° C. refrigerator for later use. The contents of total cholesterol (TC), low-density lipoprotein (LDL) and triglyceride (TG) in the serum were measured on a blood biochemical analyzer.
On the 18th day of the administration, the mice were intraperitoneally injected with the anesthetic (xylazine combined with ketamine, 10 ml/Kg, IP), and the bone mineral density and body fat ratio of the mice were measured on a bone density meter.

Compound: CC(=O)NC1C(OCCCCC(=O)NCCCNC(=O)CCOCC(COCCC(=O)NCCCNC(=O)CCCCOC2OC(CO)C(O)C(O)C2NC(C)=O)(COCCC(=O)NCCCNC(=O)CCCCOC2OC(CO)C(O)C(O)C2NC(C)=O)NC(=O)CCCCCNC(=O)[C@H](Cc2cc(I)c(Oc3ccc(O)c(I)c3)c(I)c2)NC(=O)OC(C)(C)C)OC(CO)C(O)C1O (stereo partly shown) [Kylo-0103]
- serum LDL level reduction rate (db/db mice [1]): 15.25%
- serum TC level reduction rate (db/db mice [1]): 44.37%
- serum TG level reduction rate (db/db mice [1]): 43.94%

Compound: N[C@@H](Cc1cc(I)c(Oc2ccc(O)c(I)c2)c(I)c1)C(=O)O [Kylo-0100, triiodothyronine]
- serum TC level reduction rate (db/db mice [1]): 34.68%
- serum TG level reduction rate (db/db mice [1]): 42.55%
- bone mineral density (BMD) (db/db mice [2]; 18th day of administration, vs saline control group): significantly lower than that of the saline control group
- effect on the body weight of mice (db/db mice [2]; 21 days): significant effect
